# Data from PubChem BioAssay (NCI).
#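 Five compound concentrations were applied to cells in 96-well plates for 48 hours; endpoints were derived by simple linear interpolation of the resulting dose-response curve. GI50 = concentration required for 50% inhibition of growth. The concentration for full growth arrest is given as TGI.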
# Key:
# Assay in all cases: inhibition of tumour cell growth, NCI panel, 48 h
# [1] = system: SF-295 CNS
# [2] = system: UO-31 renal
# [3] = system: NCI-H460 lung
# [4] = system: NCI/ADR-RES ovarian
# [5] = system: SNB-75 CNS
# [6] = system: U251 CNS
# [7] = system: TK-10 renal
# [8] = system: MDA-MB-435
# [9] = system: MCF7 breast
# [10] = system: OVCAR-4 ovarian
Structure (SMILES),GI50 [1] [µM],TGI [1] [µM],GI50 [2] [µM],TGI [2] [µM],GI50 [3] [µM],TGI [3] [µM],GI50 [4] [µM],TGI [4] [µM],GI50 [5] [µM],TGI [5] [µM],GI50 [6] [µM],TGI [6] [µM],GI50 [7] [µM],TGI [7] [µM],GI50 [8] [µM],TGI [8] [µM],GI50 [9] [µM],TGI [9] [µM],GI50 [10] [µM],TGI [10] [µM]
OCc1ccc(Oc2c3ccccc3nc3occc23)cc1,15.5,35.9,77.2,> 100,20.8,68,20.2,49,31.7,89.8,27,56,18.1,46.8,15.5,38.2,16.6,39.5,37.9,> 100
CC(C)=CC1CC(C)C2(CCC3(C)CC4C(C(=O)CC4(C)O)/C(C=O)=C\CC32)O1 (centres undefined),–,0.515,–,0.0989,–,0.283,–,0.443,–,0.237,–,0.197,–,0.0596,–,0.197,–,0.684,–,0.147
CNCCOC(=O)/C=C1/CCC2C(C(O)CC3C(C)(C(=O)OC)CCCC23C)C1C (centres undefined),0.0209,0.0452,0.0187,0.0372,< 0.01,0.019,0.0185,0.0378,0.0181,0.0397,0.0183,0.0341,0.0168,0.0351,0.0289,0.0881,0.0213,0.071,0.0183,0.034
CC1(C)Cc2c(Br)c(Br)c(Br)c(OCC(O)CN3CCOCC3)c2O1 (centres undefined),5.17,20.3,12.8,27.4,9.29,25.8,16.1,34.7,12.6,38.1,13.7,27.9,14.5,30,15.5,31.9,13.4,29,19.3,> 100
CN(C)S(=O)(=O)c1ccc(Nc2ccc(O)c3c2C(=O)c2c([N+](=O)[O-])ccc(O)c2C3=O)cc1,–,> 100,–,> 100,–,> 100,–,> 100,–,> 100,–,> 100,–,> 100,–,> 100,–,> 100,–,> 100
CN1CCC(n2[nH]c(-c3ccccc3)c(Cc3ccccc3)c2=O)CC1,–,> 100,–,> 100,–,> 100,–,> 100,–,> 100,–,> 100,–,> 100,–,> 100,–,> 100,–,> 100
CC1(C)N[P+]2(Nc3ccccc3O2)OC1=O (centres undefined),–,> 100,–,> 100,–,> 100,–,> 100,–,> 100,–,> 100,–,> 100,–,33.2,–,> 100,–,> 100
COc1ccc(/C=C\c2cc(OC)c(OC)c(OC)c2)cc1OCC(=O)Nc1nc2ccc(OC(F)(F)F)cc2s1,3.7,> 100,4.37,> 100,4.11,> 100,2.7,8.62,1.56,7.68,3.37,> 100,18.6,> 100,1.93,5.14,2.89,> 100,5.34,> 100
COc1cc(-c2n/c(=C\c3c(O)[nH]c4ccccc34)cc3c2=Nc2ccccc2-3)cc(OC)c1OC,0.666,> 38.4,2.5,> 100,0.334,1.76,1.62,> 31.5,0.381,> 100,0.333,12.1,2.18,25,1.68,6.48,0.363,> 23.2,0.506,> 100
Cc1ccc(/C(=C/C=C(C#N)C#N)Sc2ccccn2)cc1,8.72,22.8,3.21,–,4.62,21,4.63,13.2,5.18,18.4,5.02,20.3,3.02,12.1,4.79,13.3,4.62,36,3.01,11.6
Cc1cc2nc3c4cccc(O)c4n(CCN(C)C)c3nc2cc1C,3.58,14,0.86,3.28,0.818,6.13,1.97,11.4,1.18,11.1,2.05,7.72,4.37,19.8,1.65,3.12,1.36,5.08,2.89,11.9
c1cncc(CNc2ncn[nH]2)c1,–,> 100,–,> 100,–,> 100,–,> 100,–,> 100,–,> 100,–,> 100,–,> 100,–,> 100,–,> 100
Cc1ccc(F)cc1NC(=O)c1cc(Cl)ccc1Nc1ccccc1,56,> 100,> 100,> 100,> 100,> 100,> 100,> 100,22.7,> 100,> 100,> 100,> 100,> 100,> 100,> 100,> 100,> 100,15.9,> 100
